Columns and labels:
L1210 [1] = experiment: Compound was evaluated for % of growth control in cultured L1210 cells; type: functional, Mus musculus
L1210 [2] = experiment: Tested for inhibitory activity on cultured L1210 cells; type: functional, cell-based; details: Mus musculus
[3] = Lethal dose of compound towards active site probes for spermidine and spermine synthase in L1210 cultured cell assay,; type: toxicity, cell-based; details: mouse, L1210 cells; read-out: LD50 (the source's name)
L1210 [4] = experiment: Ornithine decarboxylase activity was measured by the enzymatic decarboxylation of L-[14C-COOH]-ornithine as nmol CO2 produced per hour per mg of protein in L1210 cells; type: functional, Mus musculus
L1210 [5] = experiment: S-adenosyl-methionine decarboxylase activity was measured by the enzymatic decarboxylation of L-[14C-COOH]-methionine as nmol CO2 produced per hour per mg of protein in L1210 cells; type: functional, Mus musculus
L1210 [6] = experiment: Cellular polyamine (SPD) content was determined in L1210 cells.; type: functional, Mus musculus
L1210 [7] = experiment: Cellular polyamine (putrescine) content was determined in L1210 cells.; type: functional, Mus musculus
L1210 [8] = experiment: Cellular polyamine (spermine) content was determined in L1210 cells.; type: functional, Mus musculus

SMILES: Br.C[S+](C[C@H]1O[C@@H](n2cnc3c(N)ncnc32)[C@H](O)[C@@H]1O)C1CCNC1.[Br-] (stereo partly specified)
- Growth (L1210 [1]): 58%
- IC50 (L1210 [2]): 1000 µM
- CC50 [3]: 1000 µM
- Activity (L1210 [4]): 6.16 (nM of CO2) hr-1 mg-1
- Activity (L1210 [5]): 500 (nM of CO2) hr-1 mg-1
- Cellular content (L1210 [6]): 208 pM (10e6*cells)-1
- Cellular content (L1210 [7]): 170 pM (10e6*cells)-1
- Cellular content (L1210 [8]): 1290 pM (10e6*cells)-1

SMILES: Nc1ncnc2c1ncn2[C@@H]1O[C@H](CSC2CCNC2)[C@@H](O)[C@H]1O (stereo partly specified)
- Growth (L1210 [1]): 46%
- IC50 (L1210 [2]): 100 µM
- CC50 [3]: 100 µM
- Activity (L1210 [4]): 2.98 (nM of CO2) hr-1 mg-1
- Activity (L1210 [5]): 367 (nM of CO2) hr-1 mg-1
- Cellular content (L1210 [6]): 410 pM (10e6*cells)-1
- Cellular content (L1210 [7]): 37 pM (10e6*cells)-1
- Cellular content (L1210 [8]): 1000 pM (10e6*cells)-1

Source: ChEMBL document CHEMBL1125988, “Restricted rotation analogs of decarboxylated S-adenosylmethionine as inhibitors of polyamine biosynthesis” (Bioorg Med Chem Lett, 1991)
